# Assay results from patent US5336485A, “Method for protecting animals against tacrine induced cytotoxic injury using sterol compounds” (priority 1993, dated 1994).
# Counter-ions that a name gives are not always drawn.
# How the values were obtained:
# [1] = test system: liver; assay: Acetaminophen-induced hepatotoxicity in rats (AST/ALT); format: in vivo, rat
# Method: In vivo experiments were performed to determine if alpha-TS administration protects the liver from the hepatotoxic effects of acetaminophen. Acetaminophen is a commonly used analgesic that is metabolized to a reactive intermediate. […] The other group of male Sprague-Dawley rats received only the acetaminophen challenge. Forty eight hours after the challenge the rats were sacrificed and the levels of aspartate aminotransferase (AST) and alanine aminotransferase (ALT) were measured.
# FIGS. 10 and 11 show the results of in vivo experiments where male Sprague-Dawley rats were given an oral dose of 15 or 30 mg THA/kg body weight, respectively. In the experiments, one group of rats was provided with an i.p. dose of 100 mg cholesteryl succinate tris salt/kg body weight 20 hours prior to the THA challenge, another group of rats only received the THA challenge, and the last group of rats acted as a control and were not challenged. The serum AST levels were determined with respect to time after the THA challenge.
# [2] = test system: L1210 murine leukemia cells; assay: Inhibition of L1210 leukemia cell growth in vitro; format: cell-based, mouse
# Method: Similar in vitro experiments were conducted with cholesteryl succinate tris salt and alpha-TS tris salt.
# [3] = test system: male Sprague-Dawley rats; assay: CCl4 induced lethality in rats; format: in vivo, rat; settings: for Survival after CCl4 treatment: 100 mg/kg ip 24 h prior, […] CCl4 oral
# [4] = test system: liver; assay: CCl4 induced hepatotoxicity in rats (serum AST/ALT); format: in vivo, rat
# How it was run: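 Male Sprague-Dawley rats received test compounds i.p. at 100 mg/kg 20–24 h before oral CCl4 (2.9 g/kg or 1 g/kg). Serum AST and ALT were measured 48 h after CCl4 challenge.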
# [5] = Tissue distribution of alpha-tocopherol and alpha-tocopherol ester in rats; format: in vivo, rat
# [6] = 100 mg/kg ip 24 h prior, acetaminophen 2.5 g/kg
# [7] = 100 mg/kg ip 20 h prior, 48 h after 1 g/kg CCl4 (Table 27), listed as Alpha Tocopheryl Succinate free acid
# [8] = PEG 400 vehicle, ip 20 h prior, 24 hrs after 2 g/kg CCl4 (Table 32)
# [9] = PEG 400 vehicle, ip 20 h prior, 48 hrs after 2 g/kg CCl4 (Table 32)
# [10] = PEG 400 vehicle, ip 20 h prior, 72 hrs after 2 g/kg CCl4 (Table 32)
# [11] = rat plasma, 100 mg/kg ip 24 h prior, 48 h after […] CCl4
# [12] = (b) ip, peanut oil and ETOH, 1 dose 100 mg/kg, 24 h
# [13] = (e) iv, liposomes, 1 dose 100 mg/kg, 24 h
# [14] = (f) ip, olive oil, 7 daily doses
# [15] = 100 mg/kg ip 20 hrs prior, 48 h after 2 g/kg AP (Table 23)
# [16] = 50 mg/kg ip, 48 h after 1 g/kg CCl4 (Table 28)
# [17] = 100 mg/kg ip 20 h prior, 48 h after 1 g/kg CCl4 (Table 20)
# [18] = 100 mg/kg ip (dihydrocholesterol 80 + sodium sulfate 30 mg/kg), 48 h after 1 g/kg CCl4 (Table 35)
# [19] = 100 mg/kg ip, 30 min after CCl4 1 g/kg (Table 29)
# [20] = 100 mg/kg ip, 30 min prior to CCl4 1 g/kg (Table 29)
# [21] = 100 mg/kg ip, 20 hours prior to CCl4 1 g/kg (Table 29)
# [22] = 100 mg/kg ip, 48 h after 1 g/kg CCl4 (Table 28)
# [23] = 100 mg/kg ip, 48 h after 1 g/kg CCl4 (Table 31)
# [24] = 100 mg/kg ip, 48 h after 1 g/kg CCl4 (Table 37)
# [25] = 100 mg/kg ip, 48 h after 1 g/kg CCl4 (Table 40)
# [26] = 100 mg/kg ip, PEG 400 vehicle, 48 h after 1 g/kg CCl4 (Table 34)
# [27] = 100 mg/kg ip, immediately prior to CCl4 1 g/kg (Table 29)
# [28] = 100 mg/kg oral 20 h prior, 48 h after 1 g/kg CCl4 (Table 20)
# [29] = 200 mg/kg ip, 48 h after 1 g/kg CCl4 (Table 28)
smiles,measurement,setting,value
"Cc1c(C)c2c(c(C)c1OC(=O)CCC(=O)O)CC[C@@](C)(CCC[C@H](C)CCC[C@H](C)CCCC(C)C)O2 [alpha-TS, d-alpha-tocopheryl succinate]",ALT,[1]; [6],432 ± 188 Units/L
same,AST,[1]; [6],"1,659 ± 607 Units/L"
same,minimal effective concentration,"[2]; Mus musculus, L1210, free acid, 72 hours, read-out: concentration that significantly suppresses growth rate of L1210 cells",> 100 µM
same,Survival after CCl4 treatment,[3],Yes
same,Protection from CCl4,[3]; 100 mg/kg ip (Table 5),Yes
same,Days Survived after CCl4,"[3]; 100 mg/kg ip, 1 hour after CCl4 and daily thereafter",2 days
same,Days Survived after CCl4,"[3]; 100 mg/kg ip, 1 hour prior and daily thereafter",> 7 days
same,Days Survived After CCl4 Treatment,"[3]; 100 mg/kg ip, 24 h prior, CCl4 3.8 g/kg",> 7 days
same,Days Survived After CCl4 Treatment,"[3]; 100 mg/kg ip, 24 h prior, CCl4 5.0 g/kg",2 days
same,Days Survived After CCl4 Treatment,"[3]; 100 mg/kg ip, 24 h prior, CCl4 […]",> 7 days
same,Days Survived after CCl4,"[3]; 100 mg/kg ip, single dose 24 h prior to CCl4 […]",> 7 days
same,cytoprotection against CCl4 lethality,[3]; 100 mg/kg oral,not observed
same,Protection from CCl4,[3]; 100 mg/kg oral (Table 5),No
same,Days Survived After CCl4 Treatment,"[3]; 100 mg/kg oral, 24 h prior, CCl4 2.2 g/kg",> 7 days
same,Days Survived After CCl4 Treatment,"[3]; 100 mg/kg oral, 24 h prior, CCl4 3.8 g/kg",2 days
same,Days Survived After CCl4 Treatment,"[3]; 100 mg/kg oral, 24 h prior, CCl4 5.0 g/kg",2 days
same,Days Survived After CCl4 Treatment,"[3]; 100 mg/kg oral, 24 h prior, CCl4 […]",3 days
same,Days Survived After CCl4 Treatment,"[3]; 25 m/kg, single dose 24 h prior",> 7 days
same,incubation time required for cytoprotection,[3]; single dose,greater than 12 hours
same,ALT,[4]; [7],1.08 ± 0.23 10^3 units/L
same,AST,[4]; [7],2.06 ± 0.53 10^3 units/L
same,Serum AST Levels,[4]; [8],.38 ± .15 10^3 units/L
same,Serum AST Levels,[4]; [9],.39 ± .22 10^3 units/L
same,Serum AST Levels,[4]; [10],.14 ± .06 10^3 units/L
same,ALT,[4]; [11],631 ± 17 Units/L
same,AST,[4]; [11],"3,430 ± 1500 Units/L"
same,Liver Concentration Ester,"[5]; 100 mg/kg ip, 24 h",119 ± 16 nmol/g
same,"alpha-TS, Blood",[5]; [12],7 nmoles/gm of Tissue
same,"alpha-TS, Heart",[5]; [12],47 nmoles/gm of Tissue
same,"alpha-TS, Kidney",[5]; [12],31 nmoles/gm of Tissue
same,"alpha-TS, Liver",[5]; [12],119 nmoles/gm of Tissue
same,"alpha-TS, Lung",[5]; [12],90 nmoles/gm of Tissue
same,"alpha-TS, Plasma",[5]; [12],8 nmoles/gm of Tissue
same,"alpha-TS, Blood",[5]; [13],6 nmoles/gm of Tissue
same,"alpha-TS, Heart",[5]; [13],10 nmoles/gm of Tissue
same,"alpha-TS, Liver",[5]; [13],322 nmoles/gm of Tissue
same,"alpha-TS, Lung",[5]; [13],4843 nmoles/gm of Tissue
same,"alpha-TS, Plasma",[5]; [13],5 nmoles/gm of Tissue
same,"alpha-TS, Blood",[5]; [14],15 nmoles/gm of Tissue
same,"alpha-TS, Brain",[5]; [14],6 nmoles/gm of Tissue
same,"alpha-TS, Heart",[5]; [14],34 nmoles/gm of Tissue
same,"alpha-TS, Kidney",[5]; [14],44 nmoles/gm of Tissue
same,"alpha-TS, Liver",[5]; [14],161 nmoles/gm of Tissue
same,"alpha-TS, Lung",[5]; [14],128 nmoles/gm of Tissue
same,accumulation of hepatic alpha-TS,[5]; oral,elimination of both the accumulation of hepatic alpha-TS and protection against CCl4 lethality
CC(C)CCC[C@@H](C)[C@H]1CC[C@H]2[C@@H]3CC=C4C[C@@H](OC(=O)CCC(=O)O)CC[C@]4(C)[C@H]3CC[C@]12C [Cholesteryl Succinate tris salt],Serum ALT Level,[1]; [15],158 ± 77 Units/L
same,Serum AST Level,[1]; [15],785 ± 495 Units/L
same,growth rate of L1210 cells (FIG. 7),[2],significantly suppress the growth rate of L1210 cells
same,Survival after CCl4 treatment,[3],Yes
same,ALT,[4]; [16],0.16 ± 0.11 10^3 units/L
same,AST,[4]; [16],0.56 ± 0.35 10^3 units/L
same,Serum AST Levels,"[4]; 100 mg/kg ip 20 h prior, 24 hrs after 2 g/kg CCl4 (Table 26), tris salt",0.57 ± 0.38 10^3 units/L
same,ALT,[4]; [17],0.122 ± 0.034 10^3 units/L
same,AST,[4]; [17],0.41 ± 0.08 10^3 units/L
same,Serum AST Levels,"[4]; 100 mg/kg ip 20 h prior, 48 hrs after 2 g/kg CCl4 (Table 26), tris salt",0.19 ± 0.07 10^3 units/L
same,ALT,[4]; [18],0.04 ± 0.02 10^3 units/L
same,AST,[4]; [18],0.22 ± 0.06 10^3 units/L
same,ALT,[4]; [19],1.50 ± 0.79 10^3 units/L
same,AST,[4]; [19],7.87 ± 4.09 10^3 units/L
same,ALT,[4]; [20],2.12 ± 1.43 10^3 units/L
same,AST,[4]; [20],9.09 ± 4.38 10^3 units/L
same,ALT,[4]; [21],0.04 ± 0.01 10^3 units/L
same,AST,[4]; [21],0.12 ± 0.02 10^3 units/L
same,ALT,[4]; [22],0.04 ± 0.02 10^3 units/L
same,AST,[4]; [22],0.22 ± 0.06 10^3 units/L
same,ALT,[4]; [23],0.02 ± 0 10^3 units/L
same,AST,[4]; [23],0.10 ± 0.03 10^3 units/L
same,ALT,[4]; [24],0.09 ± 0.01 10^3 units/L
same,AST,[4]; [24],0.21 ± 0.03 10^3 units/L
same,ALT,[4]; [25],0.04 ± 0.01 10^3 units/L
same,AST,[4]; [25],0.12 ± 0.02 10^3 units/L
same,ALT,[4]; [26],0.07 ± 0.03 10^3 units/L
same,AST,[4]; [26],0.29 ± 0.22 10^3 units/L
same,ALT,[4]; [27],1.12 ± 1.38 10^3 units/L
same,AST,[4]; [27],6.69 ± 1.87 10^3 units/L
same,SGOT Levels,"[4]; 100 mg/kg ip, 48 h after 1.0 g/kg CCl4",0.10 ± 0.03 10^3 units/L
same,ALT,[4]; [28],4.09 ± 1.191 10^3 units/L
same,AST,[4]; [28],12.51 ± 41.31 10^3 units/L
same,ALT,[4]; [29],0.03 ± 0.01 10^3 units/L
same,AST,[4]; [29],0.16 ± 0.08 10^3 units/L
same,Serum AST Levels,[4]; [8],.19 ± .10 10^3 units/L
same,Serum AST Levels,[4]; [9],.10 ± .02 10^3 units/L
same,Serum AST Levels,[4]; [10],.10 ± .02 10^3 units/L
same,inhibition in vivo at 100 mg/kg,"[4]; Rattus norvegicus, ip, 48 h, read-out: % Hepatoprotection",100%
same,protection against CCl4 hepatotoxicity (in words),"[4]; rats, serum enzyme levels",complete protection
